Measurements: patent US20110015067A1, “Herbicidal Compositions Comprising Pyroxasulfone” (BASF SE, priority 2008, published 2011)
Like-named read-outs stand apart in the source and are kept apart here.

How the values were obtained:
Format in all cases: in vivo
[1] = tested on: CHEAL (Chenopodium album); assay: post-emergence greenhouse test; conditions: for inhibition at 6.25 g/ha / inhibition at 25 g/ha / inhibition at 50 g/ha: Chenopodium album, read-out: observed % activity; for inhibition at 6.25 g/ha: use rate 6.25 g ai/ha; for inhibition at 25 g/ha: use rate 25 g ai/ha; for inhibition at 50 g/ha: use rate 50 g ai/ha
Source text: (§1) For the post-emergence treatment, the test plants were first grown to a height of 3 to 20 cm, depending on the plant habit, and only then treated. Here, the herbicidal compositions were suspended or emulsified in water as distribution medium and sprayed using finely distributing nozzles.
(§2) The respective herbicides A and/or safener were formulated as 10% by weight strength suspension concentrate and introduced to the spray liquor with the amount of solvent system used for applying the active compound. Herbicide B and/or safener were used as commercially available formulations and introduced to the spray liquor with the amount of solvent system used for applying the active compound. In the examples, the solvent used was water.
(§3) The test period extended over 20 days. During this time, the plants were tended, and their response to the treatments with active compound was evaluated.
(§4) In the following experiments, the herbicidal activity for the individual herbicide compounds (solo application) and of the mixture was assessed 8 days after treatment (8 DAT) and/or 20 days after treatment (20 DAT).
(§5) The evaluation for the damage caused by the chemical compositions was carried out using a scale from 0 to 100%, compared to the untreated control plants. Here, 0 means no damage and 100 means complete destruction of the plants.

[2] = tested on: ECHCG (Echinochloa crus-galli); assay: post-emergence greenhouse test; conditions: use rate 6.25 g ai/ha, read-out: observed % activity
Source text: as §1, §2, §3, §4, §5

[3] = tested on: SETFA (Setaria faberii); assay: post-emergence greenhouse test; conditions: Setaria faberi, use rate 25 g ai/ha, read-out: observed % activity
Source text: as §1, §2, §3, §4, §5

[4] = tested on: AMBEL (Ambrosia artemisifolia); assay: post-emergence greenhouse test; conditions: for observed activity in % destruction: 25 g ai/ha; for inhibition at 50 g/ha: Ambrosia, use rate 50 g ai/ha, read-out: observed % activity
Source text: as §1, §2, §3, §4, §5

[5] = tested on: LOLMU (Lolium multiflorum); assay: post-emergence greenhouse test; conditions: 50 g ai/ha
Source text: as §1, §2, §3, §4, §5

[6] = tested on: SETVI (Setaria viridis); assay: post-emergence greenhouse test; conditions: use rate 6.25 g ai/ha, read-out: observed % activity
Source text: as §1, §2, §3, §4, §5

[7] = tested on: ALOMY (Alopecurus myosuroides); assay: post-emergence greenhouse test; conditions: for observed activity in % destruction: 50 g ai/ha; for inhibition at 6.25 g/ha / inhibition at 25 g/ha / inhibition at 50 g/ha: Alopecurus myosuroides, read-out: observed % activity; for inhibition at 6.25 g/ha: use rate 6.25 g ai/ha; for inhibition at 25 g/ha: use rate 25 g ai/ha; for inhibition at 50 g/ha: use rate 50 g ai/ha
Source text: as §1, §2, §3, §4, §5

[8] = tested on: ERBVI; assay: post-emergence greenhouse test; conditions: use rate 12.5 g ai/ha, read-out: observed % activity
Source text: as §1, §2, §3, §4, §5

[9] = tested on: PANDI (Panicum dichotomiflorum); assay: post-emergence greenhouse test; conditions: use rate 25 g ai/ha, read-out: observed % activity
Source text: as §1, §2, §3, §4, §5

[10] = tested on: MERAN (Mercurialis annua); assay: post-emergence greenhouse test; conditions: for observed activity in % destruction: 50 g ai/ha; for inhibition at 50 g/ha: Mercurialis annua, use rate 50 g ai/ha, read-out: observed % activity
Source text: as §1, §2, §3, §4, §5

[11] = tested on: ABUTH (Abutilon theophrasti); assay: post-emergence greenhouse test; conditions: use rate 6.25 g ai/ha, read-out: observed % activity
Source text: as §1, §2, §3, §4, §5

[12] = tested on: ELEIN (Eleusine indica); assay: post-emergence greenhouse test; conditions: use rate 6.25 g ai/ha, read-out: observed % activity
Source text: as §1, §2, §3, §4, §5

[13] = tested on: ECHCG (Echinochloa crus-galli); assay: pre-emergence greenhouse test; conditions: for inhibition at 25 g/ha: Echinochloa crus-galli, use rate 25 g ai/ha, read-out: observed % activity; for inhibition at 25 g/ha / observed activity in % destruction: pre-emergence
Summary of the method: (§6)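 Compounds suspended or emulsified in water and sprayed onto soil directly after sowing, pots then covered until rooting. Herbicides formulated as 10% suspension concentrates or commercial products, alone or mixed with safener. Damage scored 0-100% versus untreated plants at 8 and/or 20 days after treatment.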

[14] = tested on: LOLMU (Lolium multiflorum); assay: pre-emergence greenhouse test; conditions: for observed activity in % destruction: pre-emergence
Summary of the method: (§7)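 Compounds suspended or emulsified in water were sprayed through fine nozzles directly after sowing, then pots were gently irrigated and kept under transparent hoods until rooting. Herbicidal effect of solo compounds and mixtures was rated 8 and/or 20 days after treatment on a 0–100% damage scale versus untreated controls.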

[15] = tested on: ERBVI; assay: pre-emergence greenhouse test; conditions: for observed activity in % destruction: pre-emergence, 25 g ai/ha
Summary of the method: as §6

[16] = tested on: BRAPL (Brachiaria plantaginea); assay: pre-emergence greenhouse test; conditions: for observed activity in % destruction: pre-emergence
Summary of the method: as §7

[17] = ECHCG pre-emergence 12.5 g ai/ha
[18] = BRAPL pre-emergence 6.25 g ai/ha
[19] = BRAPL pre-emergence 12.5 g ai/ha

Cn1nc(C(F)(F)F)c(CS(=O)(=O)C2=NOC(C)(C)C2)c1OC(F)F [pyroxasulfone, 3-[5-(difluoromethoxy)-1-methyl-3-(trifluoromethyl)pyrazol-4-ylmethylsulfonyl]-4,5-dihydro-5,5-dimethyl-1,2-oxazole]
20%: observed activity in % destruction ([1]; 12.5 g ai/ha, 8 DAT) | inhibition at 6.25 g/ha ([7]; 192 h, 8 DAT)
60%: observed activity in % destruction ([1]; 50 g ai/ha, 20 DAT) | inhibition at 50 g/ha ([1]; 480 h, 20 DAT) | observed activity in % destruction ([5]; 8 DAT) | inhibition at 25 g/ha ([9]; 192 h, 8 DAT) | observed % destruction 8 DAT ([15]; ERBVI pre-emergence 25 g ai/ha) | observed activity in % destruction ([15]; 8 DAT) | observed % destruction 8 DAT ([16]; BRAPL pre-emergence 25 g ai/ha) | observed activity in % destruction ([16]; 25 g ai/ha, 8 DAT)
80%: inhibition at 6.25 g/ha ([2]; 480 h, 20 DAT) | observed activity in % destruction ([5]; 20 DAT) | observed % destruction 20 DAT [16, 19] | observed activity in % destruction ([16]; 12.5 g ai/ha, 20 DAT)
85%: inhibition at 25 g/ha ([9]; 480 h, 20 DAT) | observed activity in % destruction ([10]; 20 DAT) | inhibition at 50 g/ha ([10]; 480 h, 20 DAT)
95%: observed % destruction 20 DAT ([16]; BRAPL pre-emergence 25 g ai/ha) | observed activity in % destruction ([16]; 25 g ai/ha, 20 DAT)
0%: observed activity in % destruction ([1]; 6.25 g ai/ha, 8 DAT) | observed activity in % destruction ([1]; 6.25 g ai/ha, 20 DAT) | inhibition at 6.25 g/ha ([1]; 192 h, 8 DAT) | inhibition at 6.25 g/ha ([1]; 480 h, 20 DAT)
75%: inhibition at 6.25 g/ha ([6]; 480 h, 20 DAT) | observed activity in % destruction ([7]; 20 DAT) | inhibition at 50 g/ha ([7]; 480 h, 20 DAT) | inhibition at 12.5 g/ha ([8]; 480 h, 20 DAT) | observed % destruction 8 DAT ([13]; ECHCG pre-emergence 25 g ai/ha) | inhibition at 25 g/ha ([13]; 192 h, 8 DAT) | observed activity in % destruction ([13]; 25 g ai/ha, 8 DAT) | observed % destruction 20 DAT ([15]; ERBVI pre-emergence 25 g ai/ha) | observed activity in % destruction ([15]; 20 DAT)
100%: observed % destruction 20 DAT ([13]; ECHCG pre-emergence 50 g ai/ha) | observed activity in % destruction ([13]; 50 g ai/ha, 20 DAT)
70%: inhibition at 50 g/ha ([4]; 480 h, 20 DAT) | observed % destruction 8 DAT [13, 17] | observed activity in % destruction ([13]; 12.5 g ai/ha, 8 DAT) | observed % destruction 20 DAT [16, 18] | observed activity in % destruction ([16]; 50 g ai/ha, 8 DAT)
50%: observed activity in % destruction ([4]; 8 DAT) | inhibition at 50 g/ha ([4]; 192 h, 8 DAT) | observed % destruction 20 DAT ([14]; LOLMU pre-emergence 6.25 g ai/ha) | observed activity in % destruction ([14]; 6.25 g ai/ha, 20 DAT) | observed activity in % destruction ([14]; 12.5 g ai/ha, 8 DAT)
90%: inhibition at 25 g/ha ([3]; 480 h, 20 DAT) | inhibition at 6.25 g/ha ([12]; 480 h, 20 DAT) | observed % destruction 8 DAT ([13]; ECHCG pre-emergence 50 g ai/ha) | observed activity in % destruction ([13]; 50 g ai/ha, 8 DAT) | observed activity in % destruction ([14]; 50 g ai/ha, 8 DAT)
35%: observed activity in % destruction ([1]; 25 g ai/ha, 8 DAT) | inhibition at 25 g/ha ([1]; 192 h, 8 DAT) | observed % destruction 8 DAT [16, 19] | observed activity in % destruction ([16]; 12.5 g ai/ha, 8 DAT)
55%: inhibition at 25 g/ha ([3]; 192 h, 8 DAT) | inhibition at 25 g/ha ([7]; 480 h, 20 DAT) | inhibition at 6.25 g/ha ([12]; 192 h, 8 DAT) | observed % destruction 20 DAT ([15]; ERBVI pre-emergence 12.5 g ai/ha)
98%: observed % destruction 20 DAT [13, 17] | observed % destruction 20 DAT ([13]; ECHCG pre-emergence 25 g ai/ha) | inhibition at 25 g/ha ([13]; 480 h, 20 DAT) | observed activity in % destruction ([13]; 12.5 g ai/ha, 20 DAT) | observed activity in % destruction ([13]; 25 g ai/ha, 20 DAT) | observed % destruction 20 DAT ([14]; LOLMU pre-emergence 50 g ai/ha) | observed activity in % destruction ([14]; 50 g ai/ha, 20 DAT) | observed % destruction 20 DAT ([16]; BRAPL pre-emergence 50 g ai/ha) | observed activity in % destruction ([16]; 50 g ai/ha, 20 DAT)
30%: observed activity in % destruction ([1]; 12.5 g ai/ha, 20 DAT) | observed activity in % destruction ([1]; 25 g ai/ha, 20 DAT) | inhibition at 25 g/ha ([1]; 480 h, 20 DAT) | inhibition at 6.25 g/ha ([2]; 192 h, 8 DAT) | observed activity in % destruction ([7]; 8 DAT) | inhibition at 25 g/ha ([7]; 192 h, 8 DAT) | inhibition at 50 g/ha ([7]; 192 h, 8 DAT) | inhibition at 6.25 g/ha ([7]; 480 h, 20 DAT) | observed % destruction 8 DAT [16, 18]
45%: observed activity in % destruction ([1]; 50 g ai/ha, 8 DAT) | inhibition at 50 g/ha ([1]; 192 h, 8 DAT) | observed activity in % destruction ([10]; 8 DAT) | inhibition at 50 g/ha ([10]; 192 h, 8 DAT)
65%: observed % destruction 20 DAT ([14]; LOLMU pre-emergence 12.5 g ai/ha) | observed activity in % destruction ([14]; 12.5 g ai/ha, 20 DAT)
40%: observed activity in % destruction ([4]; 20 DAT) | inhibition at 6.25 g/ha ([6]; 192 h, 8 DAT) | inhibition at 12.5 g/ha ([8]; 192 h, 8 DAT) | inhibition at 6.25 g/ha ([11]; 192 h, 8 DAT) | inhibition at 6.25 g/ha ([11]; 480 h, 20 DAT) | observed activity in % destruction ([14]; 6.25 g ai/ha, 8 DAT) | observed % destruction 20 DAT ([15]; ERBVI pre-emergence 6.25 g ai/ha)
